The source of these data is patent US10202361B2, “Pyridazinones as herbicides” (E I DU PONT DE NEMOURS AND COMPANY, priority 2014, dated 2019).

Holding throughout (format): in vivo
Assay [1] has as its system rice (Oryza sativa). Put plainly: Test B flooded paddy test. To be noted: Oryza sativa, 312 h, Flood, scale of 0 to 100, 0 is no effect, 100 is complete control, 13 to 15 d, read-out: Plant response rating, Rice; for plant injury at 250 g/ha: 250 g ai/ha; for plant injury at 125 g/ha: 125 g ai/ha. The method, boiled down: (§1)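 Visual ratings, 0 meaning no effect and 100 complete control, were made relative to untreated controls 13–15 d after treatment in a greenhouse. Treatment was by addition to paddy water 3 cm above the soil, maintained for the test, on 2-leaf-stage plants.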

The test system of assay [2] is ducksalad (Heteranthera limosa). Put plainly: Test B flooded paddy test. Conditions: Heteranthera limosa, 312 h, Flood, scale of 0 to 100, 0 is no effect, 100 is complete control, 13 to 15 d, read-out: Plant response rating, Ducksalad; for pest or weed control at 250 g/ha: 250 g ai/ha; for pest or weed control at 125 g/ha: 125 g ai/ha. The method, boiled down:
as §1

The test system of assay [3] is barnyardgrass (Echinochloa crus-galli). Kind of assay: Test B flooded paddy test. To be noted: Echinochloa crus-galli, 312 h, Flood, scale of 0 to 100, 0 is no effect, 100 is complete control, 13 to 15 d, read-out: Plant response rating, Barnyardgrass; for pest or weed control at 250 g/ha: 250 g ai/ha; for pest or weed control at 125 g/ha: 125 g ai/ha. Put shortly: as §1

The test system of assay [4] is sedge, umbrella (small-flower umbrella sedge, Cyperus difformis). Put plainly: Test B flooded paddy test. To be noted: Cyperus difformis, 312 h, Flood, scale of 0 to 100, 0 is no effect, 100 is complete control, 13 to 15 d, read-out: Plant response rating, Sedge, Umbrella; for pest or weed control at 250 g/ha: 250 g ai/ha; for pest or weed control at 125 g/ha: 125 g ai/ha. The method, boiled down: as §1

Assay [5] deals with galium (catchweed bedstraw, Galium aparine). Put plainly: Test C pre-/postemergence greenhouse herbicide test. Conditions: Preemergence; for Plant response rating, Galium: visual rating on scale 0 (no effect) to 100 (complete control), 13 to 15 d; for pest or weed control at 31 g/ha: 31 g ai/ha; for pest or weed control at 62 g/ha: 62 g ai/ha. An excerpt:
(§2) Seeds of plant species selected from blackgrass (Alopecurus myosuroides), bromegrass, downy (downy bromegrass, Bromus tectorum), foxtail, green (green foxtail, Setaria viridis), ryegrass, Italian (Italian ryegrass, Lolium multiflorum), wheat (winter wheat, Triticum aestivum), oat, wild (wild oat, Avena fatua), galium (catchweed bedstraw, Galium aparine), bermudagrass (Cynodon dactylon), surinam grass (Brachiaria decumbens), cocklebur (common cocklebur, Xanthium strumarium), corn (Zea mays), crabgrass, large (large crabgrass, Digitaria sanguinalis), cupgrass, woolly (woolly cupgrass, Eriochloa villosa), foxtail, giant (giant foxtail, Setaria faberii), goosegrass (Eleusine indica), johnsongrass (Sorghum halepense), kochia (Kochia scoparia), lambsquarters (Chenopodium album), morningglory (Ipomoea coccinea), nightshade (eastern black nightshade, Solanum ptycanthum), nutsedge, yellow (yellow nutsedge, Cyperus esculentus), pigweed (Amaranthus retroflexus), ragweed (common ragweed, Ambrosia elatior), soybean (Glycine max), sunflower (common oilseed sunflower, Helianthus annuus), Russian thistle (Salsola kali), barnyardgrass (Echinochloa crus-galli), oilseed rape (Brassica napus), waterhemp (common waterhemp, Amaranthus rudis), and velvetleaf (Abutilon theophrasti) were planted into a blend of loam soil and sand and treated preemergence with test chemicals formulated in a non-phytotoxic solvent mixture which included a surfactant.
(§3) At the same time, plants selected from these crop and weed species and also barley (winter barley, Hordeum vulgare), canarygrass (Phalaris minor), windgrass (Apera spica-venti), deadnettle (henbit deadnettle, Lamium amplexicaule), and chickweed (common chickweed, Stellaria media) were planted in pots containing Redi-Earth® planting medium (Scotts Company, 14111 Scottslawn Road, Marysville, Ohio 43041) comprising spaghnum peat moss, vermiculite, wetting agent and starter nutrients and treated with postemergence applications of test chemicals formulated in the same manner. Plants ranged in height from 2 to 18 cm (1- to 4-leaf stage) for postemergence treatments. Treated plants and controls were maintained in a greenhouse for 13 to 15 d, after which time all species were compared to controls and visually evaluated. Plant response ratings, summarized in Table C, are based on a scale of 0 to 100 where 0 is no effect and 100 is complete control. A dash (-) response means no test result.

For assay [6], the system named is ragweed (common ragweed, Ambrosia elatior). Described as above. To be noted: Preemergence; for pest or weed control at 31 g/ha: 31 g ai/ha; for pest or weed control at 62 g/ha: 62 g ai/ha; for Plant response rating, Ragweed: visual rating on scale 0 (no effect) to 100 (complete control), 13 to 15 d.
Description: as §2, §3

In assay [7] the test system is johnsongrass (Sorghum halepense). The assay is described as above. To be noted: Preemergence; for Plant response rating, Johnsongrass: visual rating on scale 0 (no effect) to 100 (complete control), 13 to 15 d; for pest or weed control at 31 g/ha: 31 g ai/ha; for pest or weed control at 62 g/ha: 62 g ai/ha.
Description: as §2, §3

The test system of assay [8] is barnyardgrass (Echinochloa crus-galli). Described as above. To be noted: Preemergence; for Plant response rating: Barnyardgrass; for Plant response rating, Barnyardgrass: visual rating on scale 0 (no effect) to 100 (complete control), 13 to 15 d.
Description: as §2, §3

The test system of assay [9] is waterhemp (common waterhemp, Amaranthus rudis). Described as above. Conditions: Preemergence; for Plant response rating, Waterhemp: visual rating on scale 0 (no effect) to 100 (complete control), 13 to 15 d; for Plant response rating: Waterhemp.
Description: as §2, §3

Setting [10] is: pre-emergence, Galium, read-out: Plant response rating.
The mark [11] stands for this setting: Ambrosia artemisiifolia, pre-emergence, Ragweed, read-out: Plant response rating.
Setting [12] is: Sorghum halepense, pre-emergence, Johnsongrass, read-out: Plant response rating.

Consider `Cc1cc(=O)n(-c2ccc(F)cc2)nc1Cn1ccc(C(F)(F)F)n1` [Compound 3, 2-(4-fluorophenyl)-5-methyl-6-[[3-(trifluoromethyl)-1H-pyrazol-1-yl]methyl]-3(2H)-pyridazinone], for which the plant injury at 250 g/ha in assay [1] amounted to 0%. The pest or weed control at 250 g/ha in [2], in assay [3] and in assay [4] was 0% each time.
Take `Cc1cc(=O)n(-c2ccc(C(F)(F)F)cc2)nc1Oc1ccnc(C(F)(F)F)c1` [Compound 5, 5-methyl-2-[4-(trifluoromethyl)phenyl]-6-[[2-(trifluoromethyl)-4-pyridinyl]oxy]-3(2H)-pyridazinone]: the plant injury at 125 g/ha in [1] was determined as 55%. For the same compound, the pest or weed control at 125 g/ha in assay [2] came to 75%; in assay [3], 55%; in assay [4], 80%.
Take `CCOc1cc(=O)n(-c2ccc(F)cc2)nc1C(=O)c1ccnc(C(F)(F)F)c1` [Compound 22, 5-ethoxy-2-(4-fluorophenyl)-6-[[2-(trifluoromethyl)-4-pyridinyl]carbonyl]-3(2H)-pyridazinone]: in assay [1], the plant injury at 250 g/ha was determined as 10%. Also, the values for the pest or weed control at 250 g/ha in assay [2], in assay [3] and in assay [4] were 70%, 10% and 80%, respectively.
As for `CCOc1cc(=O)n(-c2ccc(F)cc2)nc1C(O)c1ccnc(C(F)(F)F)c1` (stereo not shown) [Compound 23, 5-ethoxy-2-(4-fluorophenyl)-6-[hydroxy[2-(trifluoromethyl)-4-pyridinyl]methyl]-3(2H)-pyridazinone], the plant injury at 250 g/ha in assay [1] amounted to 10%. For the same compound, the pest or weed control at 250 g/ha worked out at 80% in [2], 10% in assay [3] and 70% in assay [4]. The “Plant response rating, Galium” value in assay [5] (8 g ai/ha) and in assay [5] (16 g ai/ha) was 85 in each case. Also, the results for the pest or weed control at 31 g/ha in assay [5] (setting [10]), in assay [6] (setting [11]) and in [7] (setting [12]) were 90%, 60% and 5%, respectively. The pest or weed control at 62 g/ha in assay [5] (setting [10]) came to 95%; in assay [6] (setting [11]), 55%; in assay [7] (setting [12]) it was 10%. Further, the “Plant response rating, Ragweed” value in [6] (8 g ai/ha) came to 0; in assay [6] (16 g ai/ha), 60. For the same compound, the “Plant response rating, Johnsongrass” value amounted to 0 in assay [7] (8 g ai/ha) and 5 in assay [7] (16 g ai/ha). The Plant response rating in assay [8] (31 g ai/ha) came to 25; in assay [8] (62 g ai/ha), 25; in assay [9] (62 g ai/ha), 100. The “Plant response rating, Barnyardgrass” value in assay [8] (8 g ai/ha) and in assay [8] (16 g ai/ha) was 0 each time. Also, the “Plant response rating, Waterhemp” value in assay [9] (8 g ai/ha) worked out at 85; in [9] (16 g ai/ha), 100.
Turning to `CCOc1cc(=O)n(-c2ccc(F)cc2)nc1Cc1ccnc(C(F)(F)F)c1` [Compound 25, 5-ethoxy-2-(4-fluorophenyl)-6-[[2-(trifluoromethyl)-4-pyridinyl]methyl]-3 (2H)-pyridazinone], the plant injury at 125 g/ha in assay [1] was 0%. Moreover, the pest or weed control at 125 g/ha in [2] was determined as 0%; in [3], 0%; in assay [4], 75%; in assay [5] (pre-emergence, Galium, 125 g ai/ha, read-out: Plant response rating), 100%; in assay [6] (Ambrosia artemisiifolia, pre-emergence, Ragweed, 125 g ai/ha, read-out: Plant response rating), 65%; in [7] (Sorghum halepense, pre-emergence, Johnsongrass, 125 g ai/ha, read-out: Plant response rating) it was 90%. Moreover, the values for the pest or weed control at 31 g/ha in assay [5] (setting [10]), in [6] (setting [11]) and in assay [7] (setting [12]) were 85%, 60% and 65%, respectively. For the same compound, the figures for the pest or weed control at 62 g/ha in [5] (setting [10]), in assay [6] (setting [11]) and in assay [7] (setting [12]) were 90%, 85% and 75%, respectively. In addition, the pest or weed control at 250 g/ha was 100% in [5] (pre-emergence, Galium, 250 g ai/ha, read-out: Plant response rating); 95% in [6] (Ambrosia artemisiifolia, pre-emergence, Ragweed, 250 g ai/ha, read-out: Plant response rating); 98% in [7] (Sorghum halepense, pre-emergence, Johnsongrass, 250 g ai/ha, read-out: Plant response rating). Further, the Plant response rating in [8] (31 g ai/ha) is given as 35; in [8] (62 g ai/ha) it was 85; in assay [8] (125 g ai/ha) it was 95; in [8] (250 g ai/ha), 98; in assay [9] (62 g ai/ha), 100; in assay [9] (125 g ai/ha), 100. This compound also had a Plant response rating in [9] (250 g ai/ha) of 100.
